According to PMC11651172, “Suite of Biochemical and Cell-Based Assays for the Characterization of Kirsten Rat Sarcoma (KRAS) Inhibitors and Degraders” (ACS Pharmacology & Translational Science, 2024):
Entries after “also recorded” stand apart in the source; their conditions may differ. Where two headings read alike, the source gives them in different places.

Key:
KRAS(G12D) [1] = molecular target: T1, KRAS(G12D) (Homo sapiens, UniProt P01116, G12D); experiment: targeted protein degradation assay (EFC); assay type: cell-based; conditions: A549 ED-KRAS(G12D) cells, 18 h, top dose 10 μM
T1 construct: knocking in an ED fragment (and the relevant mutation in KRAS) into the KRAS locus by CRISPR technology; ED tag (ePL, enhanced ProLink); host or cells: A549 (SPRINTer A549 KRAS G12D, CRISPR knock-in)
Protocol: (§1) We tested the KRAS(G12C)-specific protein degrader LC2 (Figure 1C) with our three KRAS cell lines in the developed protein degradation assay. The assay was set up in homogeneous 384-well format with an 11-point dose response curve, with a top dose of 10 μM and each dose tested in quadruplicate. Cells were incubated with LC2 for 18 h and at the end of incubation, detection reagents containing the complementing EA fragment were added to each well for chemiluminescence quantitation. Shown in Figure 6A, LC2 induced a loss of signal (an indication of protein degradation) in KRAS(G12C) cells with a DC50 of 1.9 μM and a Dmax of 69%, close to the previously described value.[25]
(§2) The gRNAs (crRNA), HiFi Cas9 Nuclease V3, and ATTO 550 tracrRNA used in this study to generate ED-tagged KRAS cell lines were purchased from Integrated DNA Technologies (Coralville, IA). Double-stranded DNAs containing ED or ePL (enhanced ProLink) were purchased from Eurofins Genomics Blue Heron (Bothell, WA). […] The gRNA was first annealed with fluorescence-labeled (ATTO-550) tracrRNA in a 1:1 ratio to form an RNA duplex, followed by incubation with Cas9 nuclease to generate Cas9-gRNA ribonucleoprotein (RNP). […] At 16 h postelectroporation, cells with high fluorescence at 550 nm were sorted to enrich the genome-edited cell populations. […]

KRAS(WT) [2] = molecular target: T2, KRAS(WT) (Homo sapiens, UniProt P01116); experiment: targeted protein degradation assay (EFC); assay type: cell-based; conditions: A549 ED-KRAS(WT) cells, 18 h, top dose 10 μM
T2 construct: knocking in an ED fragment (and the relevant mutation in KRAS) into the KRAS locus by CRISPR technology; ED tag (ePL, enhanced ProLink); host or cells: A549 (SPRINTer A549 KRAS WT, homozygous CRISPR knock-in)
Protocol: as §1, §2

KRAS(G12C) [3] = molecular target: T3, KRAS(G12C) (Homo sapiens, UniProt P01116, G12C); set-up: made in house; host or cells: HEK293 (transient transfection, unpurified extract); method as in PMID 32875077, PMID 34715575; conditions: Western blot, among three different cell lines; cited from earlier work
Target sequence in this assay (P01116 1-164 G12C): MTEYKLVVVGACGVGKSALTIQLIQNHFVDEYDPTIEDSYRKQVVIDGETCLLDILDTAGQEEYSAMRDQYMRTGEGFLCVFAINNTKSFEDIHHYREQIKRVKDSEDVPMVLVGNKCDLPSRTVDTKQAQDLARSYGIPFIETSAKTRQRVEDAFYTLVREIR

KRAS(G12C) [4] = molecular target: T3, KRAS(G12C); experiment: targeted protein degradation assay (EFC); assay type: cell-based; set-up: knocking in an ED fragment (and the relevant mutation in KRAS) into the KRAS locus by CRISPR technology; ED tag (ePL, enhanced ProLink); host or cells: A549 (SPRINTer A549 KRAS G12C, homozygous CRISPR knock-in)
Protocol: as §1, §2
Target sequence in this assay (P01116 1-188 isoform P01116-2 G12C): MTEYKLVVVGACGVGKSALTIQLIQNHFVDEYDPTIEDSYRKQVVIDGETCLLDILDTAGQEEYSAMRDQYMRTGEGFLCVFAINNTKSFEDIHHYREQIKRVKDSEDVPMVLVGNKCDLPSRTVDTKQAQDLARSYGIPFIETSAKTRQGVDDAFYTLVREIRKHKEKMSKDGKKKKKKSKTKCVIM

KRAS(G12D) [5] = molecular target: T1, KRAS(G12D); experiment: pulse target engagement assay; assay type: cell-based; conditions: KRAS(G12D) cells, 1 or 5 h incubation, 3 min at 67 °C
Protocol: (§3) Next, we explored the application of KRAS cell lines for a pulse target engagement (TE) assay to profile compounds or identify new ligands. The TE assay is based on the observation that the direct interaction between a compound and its cellular protein target increases the stability of the protein and reduces its turnover.[48],[49],[51] […] Therefore, in our pulse TE assay, cells are incubated with a compound and then subjected to an elevated temperature to induce protein denaturation. Compound binding protects the target protein from denaturation, and consequently preserves enzyme complementation activities with the cellular ED-tagged fusion protein, producing a robust chemiluminescent signal. In the absence of compound binding, the target protein forms denatured aggregates that leads to a loss of complementation ability and decreased chemiluminescent signal (Figure 7).
(§4) We next performed pulse TE assays with a panel of KRAS inhibitors on three KRAS cell lines. […] Cells were incubated with the compounds for 1 or 5 h, followed by a 3 min incubation at 67 °C.
(§5) The pulse target engagement assay was set up in a 96-well format with an 11-point dose response curve (triplicates/dose) and vehicle control. Cells were collected and diluted in complete medium that allowed for a cell seeding of 5000 cells in 40 μL per well in 96-well PCR plates (black, Thermo Fisher Scientific, Waltham, MA). […]

KRAS(WT) [6] = molecular target: T2, KRAS(WT); experiment: pulse target engagement assay; assay type: cell-based; conditions: KRAS(WT) cells, 1 or 5 h incubation, 3 min at 67 °C
Protocol: as §3, §4, §5

KRAS(G12C) [7] = molecular target: T3, KRAS(G12C); experiment: pulse target engagement assay; assay type: cell-based; set-up: knocking in an ED fragment (and the relevant mutation in KRAS) into the KRAS locus by CRISPR technology; ED tag (ePL, enhanced ProLink); host or cells: A549 (SPRINTer A549 KRAS G12C, homozygous CRISPR knock-in); conditions: KRAS(G12C) cells, 1 or 5 h incubation, 3 min at 67 °C
Protocol: as §3, §4, §5
Target sequence in this assay (P01116 1-188 isoform P01116-2 G12C): as above

T2 sequence (P01116 1-188 isoform P01116-2): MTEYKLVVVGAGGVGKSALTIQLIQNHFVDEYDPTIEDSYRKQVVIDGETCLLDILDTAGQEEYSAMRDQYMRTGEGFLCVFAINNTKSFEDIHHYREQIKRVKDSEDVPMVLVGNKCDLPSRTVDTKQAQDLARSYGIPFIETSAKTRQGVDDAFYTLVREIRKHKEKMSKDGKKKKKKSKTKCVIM
T1 sequence (P01116 1-188 isoform P01116-2 G12D): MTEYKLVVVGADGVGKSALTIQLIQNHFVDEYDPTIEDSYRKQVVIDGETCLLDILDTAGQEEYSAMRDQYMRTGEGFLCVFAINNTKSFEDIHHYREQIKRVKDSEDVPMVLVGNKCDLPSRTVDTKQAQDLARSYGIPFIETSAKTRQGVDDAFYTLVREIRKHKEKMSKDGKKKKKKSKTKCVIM

Compound	protein degradation (KRAS(G12D) [1])	protein degradation (KRAS(WT) [2])	DC50 (KRAS(G12C) [3]) [nM]	Dmax (KRAS(G12C) [3])	Dmax (KRAS(G12C) [4]; A549) [%]	DC50 (KRAS(G12C) [4]; A549 ED-KRAS(G12C) cells, 18 h incubation) [nM]	target engagement (affinity in words) (KRAS(G12D) [5])	target engagement (affinity in words) (KRAS(WT) [6])	target engagement (affinity in words) (KRAS(G12C) [7])
C=C(F)C(=O)N1CCN(c2nc(OC[C@@H]3CCCN3CCCOCCC(=O)N[C@H](C(=O)N3C[C@H](O)C[C@H]3C(=O)NCc3ccc(-c4scnc4C)cc3)C(C)(C)C)nc3c2CCN(c2cccc4cccc(Cl)c24)C3)C[C@@H]1CC#N [LC2]	some degradation in KRAS(G12D) cells at high doses; also recorded: low levels of KRAS(G12D) degradation only at higher concentrations	sparing KRAS(WT)	250 to 760	75%–90%	69	1900			
C#Cc1c(F)ccc2cc(O)cc(-c3ncc4c(N5CC6CCC(C5)N6)nc(OC[C@@]56CCCN5C[C@H](F)C6)nc4c3F)c12 [MRTX1133]							high selectivity; also recorded: high affinity	some interaction; also recorded: some binding to KRAS(G12C) and KRAS(WT) proteins at high concentration	some interaction; also recorded: some binding to KRAS(G12C) and KRAS(WT) proteins at high concentration
